The values that follow come from patent publication US20230174484A1, “ANTAGONISTS OF GPR39 PROTEIN” (Oregon Health & Science University, priority 2020, published 2023).

Molecules are shown by their SMILES.

This assay addresses T1, human GPR39 receptor (Homo sapiens, UniProt O43194).
T1 construct: PC3 Cells, Expressing the Endogenous Human GPR39 Receptor; endogenous in cells; host or cells: PC3 (human prostate adenocarcinoma) cells
T1 sequence (O43194 1-453): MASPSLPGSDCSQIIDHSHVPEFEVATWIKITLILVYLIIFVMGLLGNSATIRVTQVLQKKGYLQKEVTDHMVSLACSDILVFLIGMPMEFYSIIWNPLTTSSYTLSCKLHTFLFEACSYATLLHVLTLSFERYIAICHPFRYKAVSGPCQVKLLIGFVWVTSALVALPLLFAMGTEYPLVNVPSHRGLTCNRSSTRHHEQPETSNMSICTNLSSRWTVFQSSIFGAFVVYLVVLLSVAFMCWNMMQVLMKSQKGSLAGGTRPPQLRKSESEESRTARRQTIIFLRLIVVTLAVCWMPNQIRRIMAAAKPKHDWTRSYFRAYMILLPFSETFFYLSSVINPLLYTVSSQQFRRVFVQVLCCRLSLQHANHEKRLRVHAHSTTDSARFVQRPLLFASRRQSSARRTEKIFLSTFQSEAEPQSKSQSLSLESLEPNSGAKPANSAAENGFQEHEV
The assay is described as follows: Measurement of intracellular calcium response in PC3 cells (FLIPR), antagonism of the C3 agonist response. The class given is cell-based. As to conditions: functional pKi (modified Cheng-Prusoff), inhibition of the C3 (TC-G 1008) response at EC90, 30 μM ZnCl2, read-out: fpKi activity. The method, then:
Human prostate adenocarcinoma (PC3) cells endogenously expressing human GPR39 receptor were seeded into black walls clear-base 384-well plates at a density of 7,500 cells per well in DM EM (Low Glucose) supplemented with 10% heat-inactivated foetal bovine serum and 1% of Pen/Strep and grown overnight at 37° C., 5% CO2. After washing with assay buffer (20 mM HEPES, 137 mM NaCI, 5.4 mM KCI, 10 mM glucose, 0.8 mM MgSO4, 1.3 mM CaCl2, 0.3 mM Na2HPO4, 0.4 mM KH2PO4 4.2 mM NaHCO3, pH 7.4), cells were incubated with Calcium-6 probe (Molecular Devices) at 37° C. for 2h and then equilibrated at RT for 30 minutes on metal block. The fluorescence was measured in real time by Fluorometric Imaging Plate Reader (FLIPR TETRA, Molecular Devices) (excitation wavelength at 470-495 nm, emission wavelength at 515-575 nm).
Compounds of invention were serially diluted in neat DMSO at 1000 fold concentrations and plated into 384-well plates and then 200-fold diluted in assay buffer containing 150 uM ZnCl2 (30 μM final concentration) and […].
Fluorescence was monitored throughout the run assay. The peak of Ca2+stimulation (baseline subtracted) was expressed as percentage of the maximal inhibition of the EC90 C3 response and was plotted versus the concentration of test compound. Curve fitting and IC50 estimations are carried out using a four-parameter logistic model using XLfit Software.
The potency of compounds was reported as functional pKi (—Log10Ki) obtained using the modified Cheng-Prusoff relationship (Cheng, Y., Prusoff, W. H. 1973.)
fKi =IC50/(1+[L]/EC50) where IC50 is the concentration of antagonist required for 50% inhibition of the maximum response, [L] is the concentration of the agonist used (EC90) and EC50 is the concentration of agonist need to induced 50% of the maximum response (obtained in each experimental plate).
An fpKi less than 5.2 is reported as “+/±”. An fpKi ranging from 5.2 to 5.9 is reported as “+”. An fpKi from 6.0 to 6.5 is reported as “++”. An fpKi from 6.6 to 7.2 is reported as “+++”. An fpKi equal to or greater than 7.3 is reported as “++++”.
Background: A change in cytosolic calcium serves as a functional read-out for many receptors and channels.
With `CS(=O)(=O)C1CCN(C(=O)c2ccc(NC(=O)C3CC3)cc2N2CCCC2)CC1` [Example 218, N-[4-(4-methylsulfonylpiperidine-1-carbonyl)-3-pyrrolidin-1-ylphenyl]cyclopropanecarboxamide], the Ki fell in the range of 1260 to 6310 nM.

Take `CN(C)CCSc1nnc(-c2ccc(NC(=O)C3CC3)cc2N2CCCCCC2)n1C` [Example 111, N-[3-(azepan-1-yl)-4-[5-[2-(dimethylamino)ethylsulfanyl]-4-methyl-1,2,4-triazol-3-yl]phenyl]Cyclopropanecarboxamide]: the Ki lay in the range of 1260 to 6310 nM. For `CC1CC(C)CN(c2cc(NC(=O)C3CC3)ccc2-c2nnc(Sc3ccccc3)n2CCN(C)C)C1` (stereo not drawn) [Example 115, N-[4-[4-[2-(dimethylamino)ethyl]-5-phenylsulfanyl-1,2,4-triazol-3-yl]-3-(3,5-dimethylpiperidin-1-yl)phenyl]cyclopropanecarboxamide], the Ki was 316 to 1000 nM.

`CCCN1CCN(C(=O)c2ccc(NC(=O)C3CC3)cc2-c2ccccn2)CC1` [Example 11, N-(4-(4-propylpiperazine-1-carbonyl)-3-(pyridin-2-yl)phenyl)cyclopropanecarboxamide]: the Ki was in the range of 316 to 1000 nM. Consider `O=C(Nc1ccc(C(=O)N2CCN(c3nccc4ccsc34)CC2)c(N2CCCCCC2)c1)C1CC1` [Example 33, N-[3-(azepan-1-yl)-4-(4-thieno[2,3-c]pyridin-7-ylpiperazine-1-carbonyl)phenyl]Cyclopropanecarboxamide], for which the Ki was in the range of 1260 to 6310 nM.

Take `CN1CCN(C(=O)c2ccc(NC(=O)C3CC3)cc2N2CCC3(CCC3)C2)C(c2ccccc2)C1` (single isomer, unassigned) [Example 66b, N-[3-(6-azaspiro[3.4]octan-6-yl)-4-(4-methyl-2-phenylpiperazine-1-carbonyl)phenyl]cyclopropanecarboxamide]: the Ki lay within 316 to 1000 nM. With `CN1CCN(C(=O)c2ccc(NC(=O)C3CC3)cc2N2CCC3(CCC3)C2)C(c2ccccc2)C1` (racemic) [Example 66c, N-[3-(6-azaspiro[3.4]octan-6-yl)-4-(4-methyl-2-phenylpiperazine-1-carbonyl)phenyl]cyclopropanecarboxamide], the Ki is at most 50.1 nM. Consider `CN1CCN(C(=O)c2ccc(NC(=O)C3CC3)cc2N2CCCC2)C(c2cncc(Cl)c2)C1` (racemic) [Example 172, N-[4-[2-(5-chloropyridin-3-yl)-4-methylpiperazine-1-carbonyl]-3-pyrrolidin-1ylphenyl]cyclopropanecarboxamide], for which the Ki fell in the range of 63.1 to 251 nM. Next, `CC1CCN(c2cc(NC(=O)C3CC3)ccc2C(=O)N2CCC(C(F)(F)F)CC2)C1` (racemic) [Example 63c, N-[3-(3-methylpyrrolidin-1-yl)-4-[4-(trifluoromethyl)piperidine-1-carbonyl]phenyl]cyclopropanecarboxamide]: at most 50.1 nM; `CN1CCN(C(=O)c2ccc(NC(=O)C3CC3)cc2N2CCCCCC2)C(Cc2ccccc2)C1` (stereo not drawn) [Example 76, N-[3-(azepan-1-yl)-4-(2-benzyl-4-methylpiperazine-1-carbonyl)phenyl]Cyclopropanecarboxamide]: 63.1 to 251 nM; `Cn1c(-c2ccccc2)nnc1-c1ccc(NC(=O)C2CC2)cc1N1CCCCCC1` [Example 112, N-[3-(azepan-1-yl)-4-(4-methyl-5-phenyl-1,2,4-triazol-3-yl)phenyl]cyclopropanecarboxamide]: 316 to 1000 nM. Take `CN1CCN(C(=O)c2ccc(NC(=O)C3CC3)cc2N2CCCCCC2)C(c2ccsc2)C1` (single isomer, unassigned) [Example 70b, N-(3-(azepan-1-yl)-4-(4-methyl-2-(thiophen-3-yl)piperazine-1-carbonyl)phenyl)cyclopropane carboxamide]: the Ki was at most 50.1 nM.
